Legend:
[1] = cited from earlier work
[2] = Surface tension by Kibron Delta-8 tensiometer (microtensiometry); conditions: for Surface Active: 24.1 ° C.

SMILES: CNCCC(Oc1ccc(C(F)(F)F)cc1)c1ccccc1 (stereo not drawn) [Fluoxetine]
- pKa(s) B = Base [1]: B 10.09

SMILES: NS(=O)(=O)c1cc2c(cc1Cl)NC(C(Cl)Cl)NS2(=O)=O (stereo not drawn) [Trichlormethiazide]
- LogP [1]: 0.97

SMILES: CC(C(=O)O)c1ccc(-c2ccccc2)c(F)c1 (stereo not drawn) [Flurbiprofen]
- pKa(s) A = acid [1]: A 4.01

SMILES: Cc1ccc(Cl)c(Nc2ccccc2C(=O)O)c1Cl [Meclofenamic Acid]
- LogP [1]: 5.9
- pKa(s) A = acid [1]: A 4.10

SMILES: O=C(O)c1cc(/N=N/c2ccc(S(=O)(=O)Nc3ccccn3)cc2)ccc1O [Sulfasalazine]
- LogP [1]: 3.61

SMILES: CC(C)(C)NCC(O)COc1cccc2c1CC(O)C(O)C2 (stereo not drawn) [Nadolol]
- pKa(s) B = Base [1]: B 9.696

SMILES: C=CCc1ccccc1OCC(O)CNC(C)C (stereo not drawn) [Alprenolol]
- pKa(s) B = Base [1]: B 9.477

SMILES: CNCCC=C1c2ccccc2CCc2ccccc21 [Nortriptyline]
- pKa(s) B = Base [1]: B 10.21

SMILES: NC12CC3CC(CC(C3)C1)C2 [Amantadine]
- LogP [1]: 2.41
- pKa(s) B = Base [1]: B 10.48

SMILES: Clc1ccc(COC(Cn2ccnc2)c2ccc(Cl)cc2Cl)c(Cl)c1 (stereo not drawn) [Miconazole]
- pKa(s) B = Base [1]: B 6.316

SMILES: CCOC(=O)c1ccc(N)cc1 [Benzocaine]
- pKa(s) B = Base [1]: B 2.39

SMILES: COc1ccc([C@@H]2Sc3ccccc3N(CCN(C)C)C(=O)[C@@H]2OC(C)=O)cc1 [Diltiazem]
- LogP [1]: 2.89

SMILES: CNc1cc2[nH]c(=O)n(-c3ccc(NC(=O)[N-]S(=O)(=O)c4ccc(Cl)s4)cc3)c(=O)c2cc1F.[K+] [potassium salt of formula (I)]
- CMC ([2]; pH 6.0 phosphate buffer): 0.1 mg/mL
- Surface tension at CMC ([2]; pH 6.0 phosphate buffer): 62 mN/m
- maximum surface pressure change ([2]; pH6 phosphate buffer): 11 mN/m
- CMC ([2]; pH 6.5 phosphate buffer): >1.7 mg/mL
- Surface tension at CMC ([2]; pH 6.5 phosphate buffer): 68 mN/m
- Surface Active ([2]; pH 6.5 phosphate buffer): Yes
- CMC ([2]; pH 7.0 phosphate buffer): >2.7 mg/mL
- Surface tension at CMC ([2]; pH 7.0 phosphate buffer): 65 mN/m
- Surface Active ([2]; pH 7.0 phosphate buffer): Yes
- CMC ([2]; pH 7.5 phosphate buffer): >4.0 mg/mL
- Surface tension at CMC ([2]; pH 7.5 phosphate buffer): 63 mN/m
- Surface Active ([2]; pH 7.5 phosphate buffer): Yes
- CMC ([2]; pH 8.0 phosphate buffer): >3.5 mg/mL
- Surface tension at CMC ([2]; pH 8.0 phosphate buffer): 63 mN/m
- Surface Active ([2]; pH 8.0 phosphate buffer): Yes

SMILES: Oc1cccc2ccccc12 [Form 1-naphthol, 1-naphthol]
- pKa(s) A = acid [1]: A 9.175

SMILES: CC(C)(C)c1ccc(C(O)CCCN2CCC(C(O)(c3ccccc3)c3ccccc3)CC2)cc1 (stereo not drawn) [Terfenadine]
- LogP [1]: 5.42
- pKa(s) B = Base [1]: B 9.25

SMILES: O=C(O)c1ccccc1Nc1cccc(C(F)(F)F)c1 [Flufenamic Acid]
- LogP [1]: 5.56
- pKa(s) A = acid [1]: A 3.968

SMILES: NS(=O)(=O)c1cc2c(cc1C(F)(F)F)NC(Cc1ccccc1)NS2(=O)=O (stereo not drawn) [Bendroflumethiazide]
- LogP [1]: 1.95

SMILES: CCN(CC)CCNC(=O)c1cc(Cl)c(N)cc1OC [Metoclopramide]
- pKa(s) B = Base [1]: B 9.24

SMILES: Cc1ccnc(NS(=O)(=O)c2ccc(N)cc2)n1 [Sulfamerazine]
- LogP [1]: 0.15
- pKa(s) A = acid [1]: 6.81
- pKa(s) B = Base [1]: 2.22

SMILES: Cc1ccccc1C(OCCN(C)C)c1ccccc1 (stereo not drawn) [Orphenadrine]
- LogP [1]: 3.84
- pKa(s) B = Base [1]: B 9.037

SMILES: CC(=O)Nc1ccc(O)cc1 [Paracetamol]
- pKa(s) A = acid [1]: A 9.52

SMILES: CC1CCc2cc(F)cc3c(=O)c(C(=O)O)cn1c23 (stereo not drawn) [Flumequine]
- LogP [1]: 1.72
- pKa(s) A = acid [1]: A 6.37

SMILES: CN(C)CCCN1c2ccccc2CCc2ccccc21 [Imipramine]
- pKa(s) B = Base [1]: B 9.54

SMILES: CNCCCC12CCC(c3ccccc31)c1ccccc12 [Maprotiline]
- LogP [1]: 4.85
- pKa(s) B = Base [1]: B 10.33

SMILES: O=C(O)c1cccnc1Nc1cccc(C(F)(F)F)c1 [Niflumic Acid]
- LogP [1]: 3.88
- pKa(s) B = Base [1]: 2.26

SMILES: NC(N)=Nc1nc(CSCCC(N)=NS(N)(=O)=O)cs1 [Famotidine]
- LogP [1]: −0.81
- pKa(s) A = acid [1]: 11.01
- pKa(s) B = Base [1]: 6.77

SMILES: CCn1cc(C(=O)O)c(=O)c2cc(F)c(N3CCNCC3)cc21 [Norfloxacin]
- LogP [1]: −1.03
- pKa(s) A = acid [1]: A 6.324 B
- pKa(s) B = Base [1]: 8.575

SMILES: CN(C)CC/C=C1/c2ccccc2Sc2ccc(Cl)cc21 [Chlorprothixene]
- LogP [1]: 5.48
- pKa(s) B = Base [1]: B 9.52

SMILES: O=C1CN(/N=C/c2ccc([N+](=O)[O-])o2)C(=O)N1 [Nitrofurantoin]
- LogP [1]: −0.54
- pKa(s) A = acid [1]: A 7.05

SMILES: O=C(CCCN1CCC(O)(c2ccc(Cl)cc2)CC1)c1ccc(F)cc1 [Haloperidol]
- pKa(s) B = Base [1]: B 8.42

SMILES: NS(=O)(=O)c1cc2c(cc1Cl)N=C(CSCc1ccccc1)NS2(=O)=O [Benzthiazide]
- LogP [1]: 1.73

SMILES: CCN(CC)Cc1cc(Nc2ccnc3cc(Cl)ccc23)ccc1O [Amodiaquin]
- LogP [1]: 4.2
- pKa(s) A = acid [1]: A 11.49

SMILES: CNCCCN1c2ccccc2CCc2ccccc21 [Desipramine]
- pKa(s) B = Base [1]: B 10.08

SMILES: Nc1ccc(S(=O)(=O)Nc2nccs2)cc1 [Sulfathiazole]
- LogP [1]: 0.07
- pKa(s) A = acid [1]: 7.168
- pKa(s) B = Base [1]: B 2.124 A

SMILES: CN(C)CCC=C1c2ccccc2CCc2ccccc21 [Amitriptyline]
- pKa(s) B = Base [1]: B 9.3

SMILES: O=C(O)c1ccc2ccccc2c1 [2-naphthoic acid]
- LogP [1]: 3.28
- pKa(s) A = acid [1]: A 3.884

SMILES: Nc1nc2ncc(CNc3ccc(C(=O)N[C@@H](CCC(=O)O)C(=O)O)cc3)nc2c(=O)[nH]1 [Folic Acid]
- LogP [1]: 0.2
- pKa(s) B = Base [1]: 2.33

SMILES: Cc1cccc(Nc2ccccc2C(=O)O)c1C [Mefenamic Acid]
- pKa(s) A = acid [1]: A 4.221

SMILES: CC(C(=O)O)c1ccc2c(c1)[nH]c1ccc(Cl)cc12 (stereo not drawn) [Carprofen]
- LogP [1]: 4.29
- pKa(s) A = acid [1]: A 4.247
